Experimental data as given in publication PMC10996005, “Identification and Development of Cyclic Peptide Inhibitors of Hypoxia Inducible Factors 1 and 2 That Disrupt Hypoxia-Response Signaling in Cancer Cells” (Journal of the American Chemical Society, 2024).
Where a SMILES comes first, the peptide text is derived from it. [ ]: non-standard residue; d: D form. Phe(4-I) = N[C@@H](Cc1ccc(I)cc1)C(=O)O

Assays:
[1] = test system: HIF-driven expression of YFP in T-REx-293 reporter cell line; assay: HRE-YFP reporter assay in hypoxia; type: cell-based, human
Description: (§1) Following in vitro characterization and optimization of binding, we next assessed the effect of our cyclic peptides in mammalian cells. A cell line with a stably integrated reporter was constructed, in which the expression of yellow fluorescent protein (YFP) was placed under the control of a HRE. Thus, hypoxia would be expected to increase YFP expression (and subsequent fluorescence) in these cells, whereas treatment with a cell-permeable HIF inhibitor would be expected to reduce this fluorescence signal. A fusion cassette was designed containing the YFP gene preceded by three copies of the HRE sequence. This cassette was stably integrated into T-REx-293 cells as previously described.[12] […] The effect of this compound on the viability of T-Rex-293 was assessed with no effect observed at doses up to 75 μM (Figure S9a). […] It should be noted that the relative activity of each compound in this assay will be a combination of its cell permeability and HIF-inhibiting activity. […] We therefore continued to further characterize the cell activity of the 4-iodo-phenylalanine derivative. […]
Generation of HRE-eYFP integrated cell line
The Flp-In System (Fisher) was used to generate a constitutive expression cell line that expresses eYFP under the control of the VEGF HRE. The coding sequence of the yellow fluorescent protein (eYFP) was cloned downstream of the VEGF HRE sequence in the pcDNA5 plasmid, such that the entire cassette was under the regulation of a Tet-On gene expression system. The plasmid was transfected into a human embryonic kidney cell line (Flp-In™-293) and integrated using the manufacturer’s protocol.
Activity Assessment using Flp-In-HRE-eYFP cell line
The Flp-In-HRE-eYFP cells were plated on 24-well plates at 80% confluency and incubated overnight under normoxic conditions. The cells were then treated with different concentrations of compound and incubated for 18 hours under hypoxic conditions. After treatment, the cells were washed with PBS and lysed to extract the total cellular protein. The cell extract was cold centrifuged for 20 minutes at 14,000 RPM. An equal amount of the supernatant from each treatment was plated on a 96-well plate, and the emission of eYFP was measured using a microplate reader. […]

T-Rex-293 cells = assay: CytoTox-Glo cytotoxicity / viability assay; type: cell-based, human; settings: doses up to 75 μM
Description: as §1
Pancreatic cancer cells (PANC-1) were plated in a T75 flask at 80% confluency overnight under normoxic conditions. […] The concentration of the extracted proteins was measured using the BCA Protein Assay Kit (Sigma) following the manufacturer's instructions. […]

CAIX in HeLa cells = assay: qPCR of CAIX in HeLa cells; type: cell-based; settings: hypoxic HeLa cells, vs DMSO-treated hypoxic cells
Method: The effect of our lead inhibitor on hypoxia-response signaling was measured by qPCR in cancer cell lines. Cells were treated with either 2 μM of an analogue of the HIF-2-specific inhibitor belzutifan, PT2399 (control), or 50 μM of cyclo-CRLII(4-iodo)F, incubated in hypoxia for 24 h, and the levels of the hypoxia-response genes CAIX([41],[42]) and VEGF([43]) were measured by qPCR. We observed a 51% drop in CAIX transcription and a 43% drop in VEGF transcription in hypoxic MCF-7 (breast cancer) cells treated with 50 μM of cyclo-CRLII(4-iodo)F versus hypoxic MCF-7 cells treated with DMSO only (Figure 6e). […] We also observed a 49% drop in CAIX expression in hypoxic HeLa (cervical cancer) cells treated with cyclo-CRLII(4-iodo)F (Figure S9b). […] We observed a 35% drop in HIF-2-driven VEGF transcription in 786-O cells treated with 50 μM of cyclo-CRLII(4-iodo)F compared to a 50% decrease in 786-O cells treated with PT2399.
Figure S9. (a) The effect of cyclo-CRLII(4-iodo)F on the viability of T-ReX-293 cells. […]
The Flp-In-HRE-eYFP cells were plated on 24-well plates at 80% confluency and incubated overnight under normoxic conditions. […] An equal amount of the supernatant from each treatment was plated on a 96-well plate, and the emission of eYFP was measured using a microplate reader. […]

## CC[C@H](C)[C@@H]1NC(=O)[C@H](CC(C)C)NC(=O)[C@H](CCCNC(=N)N)NC(=O)[C@H](CS)NC(=O)[C@H](Cc2ccc(I)cc2)NC(=O)[C@H]([C@@H](C)CC)NC1=O [cyclo-CRLII(4-iodo)F] (cyclo(CRLII[Phe(4-I)]))
[1]; T-REx-293 HRE-YFP reporter, 18 hours, read-out: EC50 for reduction in hypoxia-mediated YFP fluorescence
  EC50: 30.7 ± 2.1 µM
[1]; T-Rex-293 HRE-YFP reporter
  relative activity among the 9 most potent cyclo-CRLIIF derivatives on YFP expression: most active
T-Rex-293 cells
  effect on the viability of T-Rex-293: no effect
CAIX in HeLa cells
  drop in CAIX expression: 49%
